According to ChEMBL document CHEMBL1156482, “Molecular mechanism of action of monocyclam versus bicyclam non-peptide antagonists in the CXCR4 chemokine receptor” (J Biol Chem, 2007):

Legend:
[1] = molecular target: C-X-C chemokine receptor type 4 (Homo sapiens, UniProt P61073, F174A); test: Displacement of [125I]12G5 antibody from transmembrane domain 4 of human CXCR4 F174A mutant expressed in COS7 cells; format: cell-based, COS-7
[2] = tested on: Human immunodeficiency virus 1; test: Antiviral activity against HIV1 clinical isolate 10 infected U87.CD4 cells expressing human CXCR4 E288A mutant; format: functional, organism-based; details: Human immunodeficiency virus 1, U87.CD4
[3] = molecular target: C-X-C chemokine receptor type 4 (Homo sapiens, UniProt P61073, D262N); test: (§1) Antagonist activity at human CXCR4 D262N mutant expressed in COS7 cells coexpressing G protein Gqi4myr assessed as inhibition of CXCL12-induced phosphatidylinositol turnover; format: functional, cell-based, COS-7
[4] = tested on: C-X-C chemokine receptor type 4 (Homo sapiens), P61073 [D262N]; test: as §1; format: functional, cell-based; details: COS-7
[5] = molecular target: C-X-C chemokine receptor type 4 (Homo sapiens, UniProt P61073); test: Antagonist activity at human wild type CXCR4 expressed in COS7 cells coexpressing G protein Gqi4myr assessed as inhibition of CXCL12-induced phosphatidylinositol turnover; format: functional, cell-based, COS-7
[6] = molecular target: C-X-C chemokine receptor type 4 (Homo sapiens, UniProt P61073, H203A); test: (§2) Antagonist activity at human CXCR4 H203A mutant expressed in COS7 cells coexpressing G protein Gqi4myr assessed as inhibition of CXCL12-induced phosphatidylinositol turnover; format: functional, cell-based, COS-7
[7] = tested on: C-X-C chemokine receptor type 4 (Homo sapiens), P61073 [H203A]; test: as §2; format: functional, cell-based; details: COS-7
[8] = tested on: C-X-C chemokine receptor type 4 (Homo sapiens), P61073 [Y255A]; test: (§3) Displacement of [125I]12G5 antibody from transmembrane domain 6 of human CXCR4 Y255A mutant expressed in COS7 cells; format: cell-based; details: COS-7
[9] = molecular target: T1, C-X-C chemokine receptor type 4 (Homo sapiens, UniProt P61073, Y255A); test: as §3; format: cell-based, COS-7
[10] = tested on: C-X-C chemokine receptor type 4 (Homo sapiens), P61073 [Y255A]; test: (§4) Antagonist activity at human CXCR4 Y255A mutant expressed in COS7 cells coexpressing G protein Gqi4myr assessed as inhibition of CXCL12-induced phosphatidylinositol turnover; format: functional, cell-based; details: COS-7
[11] = molecular target: T1, C-X-C chemokine receptor type 4; test: as §4; format: functional, cell-based, COS-7
[12] = tested on: C-X-C chemokine receptor type 4 (Homo sapiens), P61073 [I284A]; test: (§5) Antagonist activity at human CXCR4 I284A mutant expressed in COS7 cells coexpressing G protein Gqi4myr assessed as inhibition of CXCL12-induced phosphatidylinositol turnover; format: functional, cell-based; details: COS-7
[13] = molecular target: C-X-C chemokine receptor type 4 (Homo sapiens, UniProt P61073, I284A); test: as §5; format: functional, cell-based, COS-7
[14] = tested on: Human immunodeficiency virus 1; test: Antiviral activity against HIV1 clinical isolate 10 infected in U87.CD4 cells expressing human CXCR4 D262N mutant; format: functional, organism-based; details: Human immunodeficiency virus 1, U87.CD4
[15] = molecular target: C-X-C chemokine receptor type 4 (Homo sapiens, UniProt P61073, I259W); test: (§6) Displacement of [125I]12G5 antibody from transmembrane domain 6 of human CXCR4 I259W mutant expressed in COS7 cells; format: cell-based, COS-7
[16] = tested on: C-X-C chemokine receptor type 4 (Homo sapiens), P61073 [I259W]; test: as §6; format: cell-based; details: COS-7
[17] = molecular target: C-X-C chemokine receptor type 4 (Homo sapiens, UniProt P61073, D182A); test: (§7) Displacement of [125I]12G5 antibody from extracellular loop 2 of human CXCR4 D182A mutant expressed in COS7 cells; format: cell-based, COS-7
[18] = tested on: C-X-C chemokine receptor type 4 (Homo sapiens), P61073 [D182A]; test: as §7; format: cell-based; details: COS-7
[19] = tested on: C-X-C chemokine receptor type 4 (Homo sapiens), P61073 [Q200W]; test: (§8) Displacement of [125I]12G5 antibody from transmembrane domain 5 of human CXCR4 Q200W mutant expressed in COS7 cells; format: cell-based; details: COS-7
[20] = molecular target: C-X-C chemokine receptor type 4 (Homo sapiens, UniProt P61073, Q200W); test: as §8; format: cell-based, COS-7
[21] = tested on: Human immunodeficiency virus 1; test: Antiviral activity against HIV1 NL43 infected in U87.CD4 cells expressing human CXCR4 H281A mutant; format: functional, organism-based; details: Human immunodeficiency virus 1, NL43, U87.CD4
[22] = tested on: Human immunodeficiency virus 1; test: Antiviral activity against HIV1 clinical isolate 10 infected in U87.CD4 cells expressing human wild type CXCR4; format: functional, organism-based; details: Human immunodeficiency virus 1, U87.CD4
[23] = tested on: Human immunodeficiency virus 1; test: Antiviral activity against HIV1 NDK infected in U87.CD4 cells expressing human CXCR4 D171N mutant; format: functional, organism-based; details: Human immunodeficiency virus 1, NDK
[24] = tested on: Human immunodeficiency virus 1; test: Antiviral activity against HIV1 NDK infected in U87.CD4 cells expressing human CXCR4 D171ND262N mutant; format: functional, organism-based; details: Human immunodeficiency virus 1, NDK
[25] = tested on: Human immunodeficiency virus 1; test: Antiviral activity against HIV1 NDK infected in U87.CD4 cells expressing human CXCR4 D262N mutant; format: functional, organism-based; details: Human immunodeficiency virus 1, NDK
[26] = tested on: C-X-C chemokine receptor type 4 (Homo sapiens), P61073 [Q200A]; test: (§9) Antagonist activity at human CXCR4 Q200A mutant expressed in COS7 cells coexpressing G protein Gqi4myr assessed as inhibition of CXCL12-induced phosphatidylinositol turnover; format: functional, cell-based; details: COS-7
[27] = molecular target: C-X-C chemokine receptor type 4 (Homo sapiens, UniProt P61073, Q200A); test: as §9; format: functional, cell-based, COS-7
[28] = tested on: C-X-C chemokine receptor type 4 (Homo sapiens), P61073 [V196A]; test: (§10) Displacement of [125I]12G5 antibody from transmembrane domain 5 of human CXCR4 V196A mutant expressed in COS7 cells; format: cell-based; details: COS-7
[29] = molecular target: C-X-C chemokine receptor type 4 (Homo sapiens, UniProt P61073, V196A); test: as §10; format: cell-based, COS-7
[30] = tested on: C-X-C chemokine receptor type 4 (Homo sapiens), P61073 [I259A]; test: (§11) Antagonist activity at transmembrane domain 6 of human CXCR4 I259A mutant expressed in COS7 cells coexpressing G protein Gqi4myr assessed as inhibition of CXCL12-induced phosphatidylinositol turnover; format: functional, cell-based; details: COS-7
[31] = molecular target: C-X-C chemokine receptor type 4 (Homo sapiens, UniProt P61073, I259A); test: as §11; format: functional, cell-based, COS-7
[32] = molecular target: C-X-C chemokine receptor type 4 (Homo sapiens, UniProt P61073, T287A); test: (§12) Displacement of [125I]12G5 antibody from transmembrane domain 7 of human CXCR4 T287A mutant expressed in COS7 cells; format: cell-based, COS-7
[33] = tested on: C-X-C chemokine receptor type 4 (Homo sapiens), P61073 [T287A]; test: as §12; format: cell-based; details: COS-7
[34] = molecular target: C-X-C chemokine receptor type 4 (Homo sapiens, UniProt P61073, D171N); test: (§13) Displacement of [125I]12G5 antibody from transmembrane domain 4 of human CXCR4 D171N mutant expressed in COS7 cells; format: cell-based, COS-7
[35] = tested on: C-X-C chemokine receptor type 4 (Homo sapiens), P61073 [D171N]; test: as §13; format: cell-based; details: COS-7
[36] = tested on: C-X-C chemokine receptor type 4 (Homo sapiens), P61073 [H281A]; test: (§14) Antagonist activity at human CXCR4 H281A mutant expressed in COS7 cells coexpressing G protein Gqi4myr assessed as inhibition of CXCL12-induced phosphatidylinositol turnover; format: functional, cell-based; details: COS-7
[37] = molecular target: C-X-C chemokine receptor type 4 (Homo sapiens, UniProt P61073, H281A); test: as §14; format: functional, cell-based, COS-7
[38] = molecular target: C-X-C chemokine receptor type 4 (Homo sapiens, UniProt P61073, E288A); test: (§15) Antagonist activity at human CXCR4 E288A mutant expressed in COS7 cells coexpressing G protein Gqi4myr assessed as inhibition of CXCL12-induced phosphatidylinositol turnover; format: functional, cell-based, COS-7
[39] = tested on: C-X-C chemokine receptor type 4 (Homo sapiens), P61073 [E288A]; test: as §15; format: functional, cell-based; details: COS-7

C-X-C chemokine receptor type 4 (Homo sapiens), P61073 [Y255A], sequence (P61073 whole entry Y255A, the tested form may be a part): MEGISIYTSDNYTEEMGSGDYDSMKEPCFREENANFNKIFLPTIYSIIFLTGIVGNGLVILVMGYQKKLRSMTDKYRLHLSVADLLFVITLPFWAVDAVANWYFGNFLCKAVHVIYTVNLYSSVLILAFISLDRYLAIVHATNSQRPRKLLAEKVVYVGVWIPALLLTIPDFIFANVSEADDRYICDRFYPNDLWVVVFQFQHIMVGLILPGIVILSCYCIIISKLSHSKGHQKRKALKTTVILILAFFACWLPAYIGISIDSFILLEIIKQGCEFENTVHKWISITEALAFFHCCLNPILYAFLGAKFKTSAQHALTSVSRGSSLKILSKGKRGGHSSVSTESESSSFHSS
T1 sequence (P61073 whole entry Y255A): as the sequence (P61073 whole entry Y255A, the tested form may be a part) above
C-X-C chemokine receptor type 4 (Homo sapiens, UniProt P61073), sequence (P61073 whole entry): as the sequence (P61073 whole entry Y255A, the tested form may be a part) above, with A255Y counted along it
C-X-C chemokine receptor type 4 (Homo sapiens, UniProt P61073, D182A), sequence (P61073 whole entry D182A): as the sequence (P61073 whole entry Y255A, the tested form may be a part) above, with D182A, A255Y counted along it
C-X-C chemokine receptor type 4 (Homo sapiens), P61073 [D182A], sequence (P61073 whole entry D182A, the tested form may be a part): as the sequence (P61073 whole entry Y255A, the tested form may be a part) above, with D182A, A255Y counted along it
C-X-C chemokine receptor type 4 (Homo sapiens), P61073 [D262N], sequence (P61073 whole entry D262N): as the sequence (P61073 whole entry Y255A, the tested form may be a part) above, with A255Y, D262N counted along it
C-X-C chemokine receptor type 4 (Homo sapiens, UniProt P61073, D262N), sequence (P61073 whole entry D262N): as the sequence (P61073 whole entry Y255A, the tested form may be a part) above, with A255Y, D262N counted along it
C-X-C chemokine receptor type 4 (Homo sapiens), P61073 [H203A], sequence (P61073 whole entry H203A, the tested form may be a part): as the sequence (P61073 whole entry Y255A, the tested form may be a part) above, with H203A, A255Y counted along it
C-X-C chemokine receptor type 4 (Homo sapiens, UniProt P61073, H203A), sequence (P61073 whole entry H203A): as the sequence (P61073 whole entry Y255A, the tested form may be a part) above, with H203A, A255Y counted along it
C-X-C chemokine receptor type 4 (Homo sapiens), P61073 [V196A], sequence (P61073 whole entry V196A, the tested form may be a part): as the sequence (P61073 whole entry Y255A, the tested form may be a part) above, with V196A, A255Y counted along it
C-X-C chemokine receptor type 4 (Homo sapiens, UniProt P61073, V196A), sequence (P61073 whole entry V196A, the tested form may be a part): as the sequence (P61073 whole entry Y255A, the tested form may be a part) above, with V196A, A255Y counted along it
C-X-C chemokine receptor type 4 (Homo sapiens, UniProt P61073, F174A), sequence (P61073 whole entry F174A, the tested form may be a part): as the sequence (P61073 whole entry Y255A, the tested form may be a part) above, with F174A, A255Y counted along it
C-X-C chemokine receptor type 4 (Homo sapiens), P61073 [I259A], sequence (P61073 whole entry I259A, the tested form may be a part): as the sequence (P61073 whole entry Y255A, the tested form may be a part) above, with A255Y, I259A counted along it

In the case of c1ccc(CNCc2ccc(CN3CCCNCCNCCCNCC3)cc2)nc1, the Ki [1] is reported as 0.98 µM, the IC50 [2] is reported as 1.57 µM and the Ki [3] is reported as 7.8 µM. The logIC50 [4] was -5.11, the Ki [5] was 0.01 µM and the logIC50 ([5]; COS-7) was -8.01. The Ki [6] was 0.04 µM, the logIC50 [7] was -7.43 and the logKi [8] was -6.35. For the same compound, the Ki [9] was 0.45 µM, the logIC50 [10] was -7.79 and the Ki [11] was 0.02 µM. It also gave a logIC50 [12] of -7.5, a Ki [13] of 0.03 µM and an IC50 [14] of 3.83 µM. The Ki [15] was 18 µM, the logKi [16] was -4.75 and the Ki [17] was 0.04 µM. It also gave a logKi [18] of -7.44, a logKi [19] of -5.94 and a Ki [20] of 1.2 µM. For the same compound, the IC50 [21] was > 1.1 µM, the IC50 [22] was 4.7 µM and the IC50 [23] was 22 µM. For the same compound, the IC50 [24] was 4.64 µM, the IC50 [25] was 5.38 µM and the logIC50 [26] was -6.84. The Ki [27] was 0.15 µM, the logKi [28] was -5.74 and the Ki [29] was 1.8 µM. The logIC50 [30] was -7.55, the Ki [31] was 0.03 µM and the Ki [32] was 2 µM. For the same compound, the logKi [33] was -5.71, the Ki [34] was 3.2 µM and the logKi [35] was -5.49. For the same compound, the logIC50 [36] was -5.8, the Ki [37] was 1.6 µM and the Ki [38] was 1.9 µM. For the same compound, the logIC50 [39] was -5.17.
